For 15 compounds, MIC results are on record in US12552825B2 (Zikani Therapeutics, Inc., priority 2019, dated 2026).

Each structure is given as a SMILES string. Values after ≈ are worked out from the molar mass of the structure shown. Some results are limits rather than exact numbers.

Holding throughout (type): cell-based
One assay concerns K. pneumoniae MP-546. As to the kind of experiment: MIC determination by CLSI broth dilution, K. pneumoniae MP-546. The following applies: Klebsiella pneumoniae, MP546, CLSI broth dilution; strain MP-546.
Another assay has as its system K. pneumoniae MP-648. As to the kind of experiment: MIC determination by CLSI broth dilution, K. pneumoniae MP-648. The following applies: Klebsiella pneumoniae, MP648, CLSI broth dilution; strain MP-648.
The test system of a further assay is A. baumannii MP-15. As to the kind of experiment: MIC determination by CLSI broth dilution, A. baumannii MP-15. The following applies: Acinetobacter baumannii, MP15, strain MP-15, read-out: MIC A. baumanii MP-15.
A further assay has as its system P. aeruginosa MP-3. As to the kind of experiment: MIC determination by CLSI broth dilution, P. aeruginosa MP-3. The following applies: Pseudomonas aeruginosa, MP3, strain MP-3.
The subject of the next assay is E. coli MP-4. As to the kind of experiment: MIC determination by CLSI broth dilution, E. coli MP-4. The following applies: Escherichia coli, MP4, CLSI broth dilution; strain MP-4.
For another assay, the system named is S. aureus MP-12. As to the kind of experiment: microbe, parasite or virus in culture. The following applies: Staphylococcus aureus, MP12, read-out: MIC S. aureus MP-12.

Consider `CO[C@]1(C)C[C@@H](C)CN(C)[C@@H](CCCN2CC[C@@H](F)C2)COC(=O)C(C)(C)C(=O)[C@H](C)[C@H]1O[C@@H]1O[C@H](C)C[C@H](N(C)C)[C@H]1O` [Compound 108, (3S,6R,8R,9R,10R)-9-(((2S,3R,4S,6R)-4-(dimethylamino)-3-hydroxy-6-methyltetrahydro-2H-pyran-2-yl)oxy)-3-(3-((R)-3-fluoropyrrolidin-1-yl)propyl)-8-methoxy-4,6,8,10,12,12-hexamethyl-1-oxa-4-azacyclotridecane-11,13-dione], for which the MIC in the assay with K. pneumoniae MP-546 was < 4 µg/mL; against K. pneumoniae MP-648, < 4 µg/mL; in the assay on A. baumannii MP-15, > 32 µg/mL; with P. aeruginosa MP-3, > 32 µg/mL; against E. coli MP-4, < 4 µg/mL; in the assay on S. aureus MP-12, 4 to 32 µg/mL (≈ 6.35 to 50.8 µM).
As to `CCN1C[C@H](C)C[C@@](C)(OC)[C@H](O[C@@H]2O[C@H](C)C[C@H](N(C)C)[C@H]2O)[C@@H](C)C(=O)C(C)(C)C(=O)OC[C@H]1[C@@H](CCN1CCCC1)OC` [Compound 147], the MIC with K. pneumoniae MP-546 was 4 to 32 µg/mL (≈ 6.1 to 48.8 µM); in the assay on K. pneumoniae MP-648, 4 to 32 µg/mL (≈ 6.1 to 48.8 µM); in the assay with A. baumannii MP-15, > 32 µg/mL; in the assay on P. aeruginosa MP-3 it was > 32 µg/mL; with E. coli MP-4 it was < 4 µg/mL; in the assay with S. aureus MP-12, 4 to 32 µg/mL (≈ 6.1 to 48.8 µM).
Take `CCN1C[C@H](C)C[C@@](C)(OC)[C@H](O[C@@H]2O[C@H](C)C[C@H](N(C)C)[C@H]2O)[C@@H](C)C(=O)C(C)(C)C(=O)OC[C@@H]1CCCN(C)C(C)C` [Compound 10, (3S,6R,8R,9R,10R)-9-(((2S,3R,4S,6R)-4-(dimethylamino)-3-hydroxy-6-methyltetrahydro-2H-pyran-2-yl)oxy)-4-ethyl-3-(3-(isopropyl(methyl)amino)propyl)-8-methoxy-6,8,10,12,12-pentamethyl-1-oxa-4-azacyclotridecane-11,13-dione]: the MIC against K. pneumoniae MP-546 was < 4 µg/mL; in the assay with K. pneumoniae MP-648 it was < 4 µg/mL; with A. baumannii MP-15 it was > 32 µg/mL; against P. aeruginosa MP-3, > 32 µg/mL; in the assay on E. coli MP-4 it was < 4 µg/mL; in the assay on S. aureus MP-12, < 4 µg/mL.
For the compound `CCCCCCCN1CCC(C[C@@H]2COC(=O)[C@@](C)(CCC)C(=O)[C@H](C)[C@@H](O[C@@H]3O[C@H](C)C[C@H](N(C)C)[C@H]3O)[C@](C)(OC)C[C@@H](C)CN2C)CC1` [Compound 174], the MIC in the assay with K. pneumoniae MP-546 is 4 to 32 µg/mL (≈ 5.52 to 44.2 µM); in the assay on K. pneumoniae MP-648, 4 to 32 µg/mL (≈ 5.52 to 44.2 µM); in the assay with A. baumannii MP-15 it was > 32 µg/mL; against P. aeruginosa MP-3 it was > 32 µg/mL; against E. coli MP-4 it was < 4 µg/mL; in the assay on S. aureus MP-12, 4 to 32 µg/mL (≈ 5.52 to 44.2 µM).
With `CCCN1CCC(CC[C@@H]2COC(=O)C(C)(C)C(=O)[C@H](C)[C@@H](O[C@@H]3O[C@H](C)C[C@H](N(C)C)[C@H]3O)[C@](C)(OC)C[C@@H](C)CN2C)CC1` [Compound 75], the MIC is > 32 µg/mL in the assay with K. pneumoniae MP-546; > 32 µg/mL against K. pneumoniae MP-648; > 32 µg/mL with A. baumannii MP-15; > 32 µg/mL against P. aeruginosa MP-3; 4 to 32 µg/mL (≈ 6.12 to 48.9 µM) with E. coli MP-4; > 32 µg/mL in the assay with S. aureus MP-12.
For the compound `CCN1C[C@H](C)C[C@@](C)(OC)[C@H](O[C@@H]2O[C@H](C)C[C@H](N(C)C)[C@H]2O)[C@@H](C)C(=O)C(C)(C)C(=O)OC[C@H]1CCCN1CCC[C@@H]1C` [Compound 88, (3R,6R,8R,9R,10R)-9-(((2S,3R,4S,6R)-4-(dimethylamino)-3-hydroxy-6-methyltetrahydro-2H-pyran-2-yl)oxy)-4-ethyl-8-methoxy-6,8,10,12,12-pentamethyl-3-(3-((S)-2-methylpyrrolidin-1-yl)propyl)-1-oxa-4-azacyclotridecane-11,13-dione], the MIC was < 4 µg/mL against K. pneumoniae MP-546; < 4 µg/mL against K. pneumoniae MP-648; > 32 µg/mL with A. baumannii MP-15; > 32 µg/mL in the assay with P. aeruginosa MP-3; < 4 µg/mL in the assay on E. coli MP-4; 4 to 32 µg/mL (≈ 6.25 to 50 µM) in the assay on S. aureus MP-12.
Consider `CCN1C[C@H](C)C[C@@](C)(OC)[C@H](O[C@@H]2O[C@H](C)C[C@H](N(C)C)[C@H]2O)[C@@H](C)C(=O)C(C)(C)C(=O)OC[C@H]1CCCN1CCCCC1` [Compound 140, (3R,6R,8R,9R,10R)-9-(((2S,3R,4S,6R)-4-(dimethylamino)-3-hydroxy-6-methyltetrahydro-2H-pyran-2-yl)oxy)-4-ethyl-8-methoxy-6,8,10,12,12-pentamethyl-3-(3-(piperidin-1-yl)propyl)-1-oxa-4-azacyclotridecane-11,13-dione], for which the MIC with K. pneumoniae MP-546 is < 4 µg/mL; in the assay on K. pneumoniae MP-648, < 4 µg/mL; in the assay with A. baumannii MP-15, > 32 µg/mL; against P. aeruginosa MP-3, > 32 µg/mL; against E. coli MP-4, < 4 µg/mL; in the assay on S. aureus MP-12, 4 to 32 µg/mL (≈ 6.25 to 50 µM).
`CO[C@]1(C)C[C@@H](C)CN(C)[C@H](CCC2CCN(CC(C)C)CC2)COC(=O)C(C)(C)C(=O)[C@H](C)[C@H]1O[C@@H]1O[C@H](C)C[C@H](N(C)C)[C@H]1O` [Compound 76]: the MIC in the assay on K. pneumoniae MP-546 is 4 to 32 µg/mL (≈ 5.99 to 47.9 µM); in the assay on K. pneumoniae MP-648, 4 to 32 µg/mL (≈ 5.99 to 47.9 µM); with A. baumannii MP-15, > 32 µg/mL; against P. aeruginosa MP-3, > 32 µg/mL; in the assay with E. coli MP-4 it was < 4 µg/mL; in the assay with S. aureus MP-12, > 32 µg/mL.
Consider `CO[C@]1(C)C[C@@H](C)CN(C)[C@H](C[C@H]2C[C@H](N(C)CC3CC3)C2)COC(=O)C(C)(C)C(=O)[C@H](C)[C@H]1O[C@@H]1O[C@H](C)C[C@H](N(C)C)[C@H]1O` [Compound 138, (3R,6R,8R,9R,10R)-3-(((1r,3S)-3-((cyclopropylmethyl)(methyl)amino)cyclobutyl)methyl)-9-(((2S,3R,4S,6R)-4-(dimethylamino)-3-hydroxy-6-methyltetrahydro-2H-pyran-2-yl)oxy)-8-methoxy-4,6,8,10,12,12-hexamethyl-1-oxa-4-azacyclotridecane-11,13-dione], for which the MIC against K. pneumoniae MP-546 was < 4 µg/mL; against K. pneumoniae MP-648, < 4 µg/mL; in the assay with A. baumannii MP-15, > 32 µg/mL; with P. aeruginosa MP-3 it was > 32 µg/mL; in the assay with E. coli MP-4 it was < 4 µg/mL; in the assay on S. aureus MP-12, < 4 µg/mL.
`CCN1C[C@H](C)C[C@@](C)(OC)[C@H](O[C@@H]2O[C@H](C)C[C@H](N(C)C)[C@H]2O)[C@@H](C)C(=O)C(C)(C)C(=O)OC[C@@H]1CCCN1CCCCC1` [Compound 129, (3S,6R,8R,9R,10R)-9-(((2S,3R,4S,6R)-4-(dimethylamino)-3-hydroxy-6-methyltetrahydro-2H-pyran-2-yl)oxy)-4-ethyl-8-methoxy-6,8,10,12,12-pentamethyl-3-(3-(piperidin-1-yl)propyl)-1-oxa-4-azacyclotridecane-11,13-dione]: the MIC against K. pneumoniae MP-546 was < 4 µg/mL; against K. pneumoniae MP-648, < 4 µg/mL; in the assay on A. baumannii MP-15, > 32 µg/mL; in the assay with P. aeruginosa MP-3, > 32 µg/mL; against E. coli MP-4, < 4 µg/mL; in the assay with S. aureus MP-12, 4 to 32 µg/mL (≈ 6.25 to 50 µM).
Take `CO[C@]1(C)C[C@@H](C)CN(C)[C@H](CCCN2CCC(F)CC2)COC(=O)C(C)(C)C(=O)[C@H](C)[C@H]1O[C@@H]1O[C@H](C)C[C@H](N(C)C)[C@H]1O` [Compound 85, (3R,6R,8R,9R,10R)-9-(((2S,3R,4S,6R)-4-(dimethylamino)-3-hydroxy-6-methyltetrahydro-2H-pyran-2-yl)oxy)-3-(3-(4-fluoropiperidin-1-yl)propyl)-8-methoxy-4,6,8,10,12,12-hexamethyl-1-oxa-4-azacyclotridecane-11,13-dione]: the MIC is < 4 µg/mL with K. pneumoniae MP-546; < 4 µg/mL in the assay on K. pneumoniae MP-648; > 32 µg/mL in the assay with A. baumannii MP-15; > 32 µg/mL against P. aeruginosa MP-3; < 4 µg/mL in the assay on E. coli MP-4; < 4 µg/mL in the assay on S. aureus MP-12.
Consider `CO[C@]1(C)C[C@@H](C)CN(C)[C@H](CCCN(C)C(C)C)COC(=O)C(C)(C)C(=O)[C@H](C)[C@H]1O[C@@H]1O[C@H](C)C[C@H](N(C)C)[C@H]1O` [Compound 12, (3R,6R,8R,9R,10R)-9-(((2S,3R,4S,6R)-4-(dimethylamino)-3-hydroxy-6-methyltetrahydro-2H-pyran-2-yl)oxy)-3-(3-(isopropyl(methyl)amino)propyl)-8-methoxy-4,6,8,10,12,12-hexamethyl-1-oxa-4-azacyclotridecane-11,13-dione], for which the MIC is < 4 µg/mL against K. pneumoniae MP-546; < 4 µg/mL with K. pneumoniae MP-648; > 32 µg/mL with A. baumannii MP-15; > 32 µg/mL in the assay with P. aeruginosa MP-3; < 4 µg/mL against E. coli MP-4; 4 to 32 µg/mL (≈ 6.52 to 52.1 µM) with S. aureus MP-12.
Take `CO[C@]1(C)C[C@@H](C)CN(C)[C@@H](CCCO)COC(=O)C(C)(C)C(=O)[C@H](C)[C@H]1O[C@@H]1O[C@H](C)C[C@H](N(C)C)[C@H]1O` [Compound 4, (3S,6R,8R,9R,10R)-9-(((2S,3R,4S,6R)-4-(dimethylamino)-3-hydroxy-6-methyltetrahydro-2H-pyran-2-yl)oxy)-3-(3-hydroxypropyl)-8-methoxy-4,6,8,10,12,12-hexamethyl-1-oxa-4-azacyclotridecane-11,13-dione]: the MIC with K. pneumoniae MP-546 is 4 to 32 µg/mL (≈ 7.16 to 57.3 µM); against K. pneumoniae MP-648, 4 to 32 µg/mL (≈ 7.16 to 57.3 µM); with A. baumannii MP-15, > 32 µg/mL; against P. aeruginosa MP-3 it was > 32 µg/mL; against E. coli MP-4, < 4 µg/mL; in the assay on S. aureus MP-12, > 32 µg/mL.
Consider `CO[C@]1(C)C[C@@H](C)CN(C)[C@H](CC2CCN(C3CC3)CC2)COC(=O)C(C)(C)C(=O)[C@H](C)[C@H]1O[C@@H]1O[C@H](C)C[C@H](N(C)C)[C@H]1O` [Compound 63], for which the MIC in the assay with K. pneumoniae MP-546 was < 4 µg/mL; against K. pneumoniae MP-648, 4 to 32 µg/mL (≈ 6.27 to 50.2 µM); in the assay on A. baumannii MP-15, > 32 µg/mL; against P. aeruginosa MP-3, > 32 µg/mL; against E. coli MP-4 it was < 4 µg/mL; with S. aureus MP-12, 4 to 32 µg/mL (≈ 6.27 to 50.2 µM).
For `CCCN1C[C@H](C)C[C@@](C)(OC)[C@H](O[C@@H]2O[C@H](C)C[C@H](N(C)C)[C@H]2O)[C@@H](C)C(=O)C(C)(C)C(=O)OC[C@H]1CCCN(C)C` [Compound 21, (3R,6R,8R,9R,10R)-9-(((2S,3R,4S,6R)-4-(dimethylamino)-3-hydroxy-6-methyltetrahydro-2H-pyran-2-yl)oxy)-3-(3-(dimethylamino)propyl)-8-methoxy-6,8,10,12,12-pentamethyl-4-propyl-1-oxa-4-azacyclotridecane-11,13-dione], the MIC is < 4 µg/mL in the assay with K. pneumoniae MP-546; < 4 µg/mL with K. pneumoniae MP-648; > 32 µg/mL in the assay on A. baumannii MP-15; < 4 µg/mL in the assay with P. aeruginosa MP-3; < 4 µg/mL against E. coli MP-4; 4 to 32 µg/mL (≈ 6.52 to 52.1 µM) with S. aureus MP-12.
